Test results from BigSolDB 2.1.

Nc1cccc2c1CN(C1CCC(=O)NC1=O)C2=O (stereo not given)
solubility (mole fraction)
Details | 273.15 K | 278.15 K | 283.15 K | 288.15 K | 293.15 K | 298.15 K | 303.15 K | 308.15 K | 313.15 K | 318.15 K
in acetonitrile | 0.000444 | 0.000458 | 0.000476 | 0.000496 | 0.000516 | 0.000536 | 0.000558 | 0.000579 | 0.000601 | 0.000623
in ethyl acetate | 8e-05 | 9.2e-05 | 0.000105 | 0.00012 | 0.000136 | 0.000152 | 0.000168 | 0.000186 | 0.000206 | 0.000226
in isopropanol | 2.5e-05 | 3.2e-05 | 4.1e-05 | 5.2e-05 | 6.6e-05 | 8e-05 | 9.5e-05 | 0.000114 | 0.000136 | 0.00016
in methanol | 0.00019 | 0.000204 | 0.00022 | 0.000237 | 0.000256 | 0.000276 | 0.000301 | 0.000326 | 0.000351 | 0.000383
